One compound from patent US11312763B2, “Anti-N3pGlu amyloid beta peptide antibodies and uses thereof” (Eli Lilly and Company, priority 2016, dated 2022) can be followed below.

In the experiment the test system is deposited Aβ. Put plainly: Prior 4-month study of BACE inhibitor in feed in aged PDAPP mice. Format: in vivo.

With `C[C@@]1(c2cc(-c3cncnc3)c(F)cc2F)CCSC(N)=N1` [LY2811376], the “change in the deposited Aβ over the 4-month interval” value is reported as “no change in the deposited Aβ”.
